In US7960377B2 (priority 2008, dated 2011):

Biological target: T1, rat CB2 receptor (Rattus norvegicus, UniProt Q9QZN9)
T1 sequence (Q9QZN9 1-360): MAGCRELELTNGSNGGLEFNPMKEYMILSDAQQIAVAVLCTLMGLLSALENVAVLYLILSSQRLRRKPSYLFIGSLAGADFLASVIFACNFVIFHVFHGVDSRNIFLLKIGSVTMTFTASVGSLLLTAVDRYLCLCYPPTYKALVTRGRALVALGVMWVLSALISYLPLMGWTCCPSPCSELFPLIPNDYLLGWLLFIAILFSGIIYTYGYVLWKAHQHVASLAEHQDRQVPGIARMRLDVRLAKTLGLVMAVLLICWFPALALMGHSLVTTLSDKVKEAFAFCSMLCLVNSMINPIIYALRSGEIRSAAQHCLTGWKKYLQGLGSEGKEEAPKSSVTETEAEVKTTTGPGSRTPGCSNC
Assay: cell-based
Type: cell-based

Row | Structure (SMILES) | EC50 [nM] | inverse agonist mark, rat CB2 receptor (asterisk at the compound number)
1 | CC(C)(CO)NC(=O)c1cnc2c(c1)N(S(=O)(=O)N1CCC(F)(F)CC1)CCO2 [Example 157, 1-(4,4-difluoropiperidin-1-ylsulfonyl)-N-(1-hydroxy-2-methylpropan-2-yl)-2,3-dihydro-1H-pyrido[2,3-b][1,4]oxazine-7-carboxamide] | ≤ 30 | –
2 | COC(=O)C(C)(C)NC(=O)c1cnc2c(c1)N(S(=O)(=O)c1ccc(Cl)c(Cl)c1)CCO2 [Example 136, methyl 2-(1-(3,4-dichlorophenylsulfonyl)-2,3-dihydro-1H-pyrido[2,3-b][1,4]oxazine-7-carboxamido)-2-methylpropanoate] | ≤ 30 | –
3 | CC(C)(C)NC(=O)c1cnc2c(c1)N(S(=O)(=O)N1CCC(F)(F)C1)CCO2 [Example 163, N-tert-butyl-1-(3,3-difluoropyrrolidin-1-ylsulfonyl)-2,3-dihydro-1H-pyrido[2,3-b][1,4]oxazine-7-carboxamide] | ≤ 30 | –
4 | CC(C)(CO)NC(=O)c1cnc2c(c1)N(S(=O)(=O)N1CCC(F)CC1)CCO2 [Example 168, 1-(4-fluoropiperidin-1-ylsulfonyl)-N-(1-hydroxy-2-methylpropan-2-yl)-2,3-dihydro-1H-pyrido[2,3-b][1,4]oxazine-7-carboxamide] | ≤ 30 | –
5 | CC(C)(C)NC(=O)c1noc(-c2cnc3c(c2)N(S(=O)(=O)c2ccc(F)cc2)CCO3)n1 [Example 214, N-tert-butyl-5-(1-(4-fluoro-phenylsulfonyl)-2,3-dihydro-1H-pyrido[2,3-b][1,4]oxazin-7-yl)-1,2,4-oxadiazole-3-carboxamide] | – | 181, 188, 189, 190, 195, 200, 201, 202, 204, 211*, 214*, 220, 221,
6 | CC(C)(C)NC(=O)c1cnc2c(c1)N(S(=O)(=O)N1Cc3ccccc3C1)CCO2 [Example 183, N-tert-butyl-1-(isoindolin-2-ylsulfonyl)-2,3-dihydro-1H-pyrido[2,3-b][1,4]oxazine-7-carboxamide] | ≤ 30 | –
7 | CCN(C(=O)c1cnc2c(c1)N(S(=O)(=O)c1ccc(C(F)(F)F)cc1)CCO2)C(C)(C)C [Example 42, N-tert-butyl-N-ethyl-1-(4-(trifluoromethyl)phenylsulf-onyl)-2,3-dihydro-1H-pyrido[2,3-b][1,4]oxazine-7-carboxamide] | ≤ 30 | –
8 | O=C(N[C@H]1CCC[C@@H]1O)c1cnc2c(c1)N(S(=O)(=O)c1ccc(Cl)cc1F)CCO2 [Example 111, 1-(4-chloro-2-fluorophenylsulfonyl)-N-((1S,2S)-2-hydroxycyclopentyl)-2,3-dihydro-1H-pyrido[2,3-b][1,4]oxazine-7-carboxamide] | ≤ 30 | –
9 | CC(C)(CO)CNC(=O)c1cnc2c(c1)N(S(=O)(=O)c1ccc(Cl)c(Cl)c1)CCO2 [Example 131, 1-(3,4-dichlorophenyl-sulfonyl)-N-(3-hydroxy-2,2-dimethylpropyl)-2,3-dihydro-1H-pyrido[2,3-b][1,4]oxazine-7-carboxamide] | ≤ 30 | –
10 | O=C(N[C@H]1CCC[C@H]1O)c1cnc2c(c1)N(S(=O)(=O)c1ccc(Cl)c(Cl)c1)CCO2 [Example 132, 1-(3,4-dichlorophenyl-sulfonyl)-N-((1S,2R)-2-hydroxycyclopentyl)-2,3-dihydro-1H-pyrido[2,3-b][1,4]oxazine-7-carboxamide] | ≤ 30 | –
11 | O=S(=O)(c1ccc(F)cc1)N1CCOc2ncc(-c3nc4ncccc4o3)cc21 [Example 217] | ≤ 30 | –
12 | CNC(=O)[C@@H](N(C)C(=O)c1cnc2c(c1)N(S(=O)(=O)c1ccc(F)cc1)CCO2)C(C)(C)C [Example 58, (S)-N-(3,3-dimethyl-1-(methylamino)-1-oxobutan-2-yl)-1-(4-fluorophenylsulfonyl)-N-methyl-2,3-dihydro-1H-pyrido[2,3-b][1,4]oxazine-7-carboxamide] | ≤ 30 | –
13 | CC1(C)COCN1C(=O)c1cnc2c(c1)N(S(=O)(=O)c1ccc(Cl)c(Cl)c1)CCO2 [Example 124, (1-(3,4-dichlorophenyl-sulfonyl)-2,3-dihydro-1H-pyrido[2,3-b][1,4]oxazin-7-yl)(4,4-dimethyl-oxazolidin-3-yl)methanone] | ≤ 30 | –
14 | CC1CCN(S(=O)(=O)N2CCOc3ncc(C(=O)NCC(C)(C)CO)cc32)CC1 [Example 173, N-(3-hydroxy-2,2-dimethylpropyl)-1-(4-methylpiperidin-1-ylsulfonyl)-2,3-dihydro-1H-pyrido[2,3-b][1,4] oxazine-7-carboxamide] | ≤ 30 | –
15 | CC(C)(C)NC(=O)c1cnc2c(c1)N(S(=O)(=O)N1CCCCC1)CCO2 [Example 2, N-tert-butyl-1-(piperidin-1-ylsulfonyl)-2,3-dihydro-1H-pyrido[2,3-b][1,4]oxazine-7-carboxamide] | ≤ 30 | –
16 | CC(C)(CO)NC(=O)c1cnc2c(c1)N(S(=O)(=O)N1CCCC1)CCO2 [Example 149, N-(1-hydroxy-2-methylpropan-2-yl)-1-(pyrrolidin-1-ylsulfonyl)-2,3-dihydro-1H-pyrido[2,3-b][1,4]oxazine-7-carboxamide] | ≤ 30 | –

Row | Structure (SMILES) | EC50 [nM] | inverse agonist mark, rat CB2 receptor (asterisk at the compound number)
17 | C[C@H]1CCCCN1C(=O)c1cnc2c(c1)N(S(=O)(=O)c1ccc(C(F)(F)F)cc1)CCO2 [Example 69, (S)-(2-methylpiperidin-1-yl)(1-(4-(trifluoromethyl)-phenylsulfonyl)-2,3-dihydro-1H-pyrido[2,3-b][1,4]oxazin-7-yl)-methanone] | ≤ 30 | –
18 | CC(C)(CO)NC(=O)c1cnc2c(c1)N(S(=O)(=O)N1CCC(C(F)(F)F)CC1)CCO2 [Example 152, N-(1-hydroxy-2-methylpropan-2-yl)-1-(4-(trifluoromethyl)piperidin-1-ylsulfonyl)-2,3-dihydro-1H-pyrido[2,3-b][1,4]oxazine-7-carboxamide] | ≤ 30 | –
19 | CC(C)(CO)NC(=O)c1cnc2c(c1)N(S(=O)(=O)c1ccc(F)cc1F)CCO2 [Example 102, 1-(2,4-difluorophenylsulfonyl)-N-(1-hydroxy-2-methylpropan-2-yl)-2,3-dihydro-1H-pyrido[2,3-b][1,4]oxazine-7-carboxamide] | ≤ 30 | –
20 | CC(C)(CO)NC(=O)c1cnc2c(c1)N(S(=O)(=O)c1ccc(C(F)(F)F)cc1)CCO2 [Example 39, N-(1-hydroxy-2-methyl-propan-2-yl)-1-(4-(trifluoromethyl)phenylsulf-onyl)-2,3-dihydro-1H-pyrido[2,3-b][1,4]oxazine-7-carboxamide] | ≤ 30 | –
21 | CC(C)(C)NC(=O)c1cnc2c(c1)N(S(=O)(=O)N1CCC(C(F)(F)F)CC1)CCO2 [Example 150, N-tert-butyl-1-(4-(trifluoromethyl)piperidin-1-ylsulfonyl)-2,3-dihydro-1H-pyrido[2,3-b][1,4]oxazine-7-carboxamide] | ≤ 30 | –
22 | COC(=O)C1(NC(=O)c2cnc3c(c2)N(S(=O)(=O)c2ccc(Cl)c(Cl)c2)CCO3)CCOCC1 [Example 205, methyl 4-(1-(3,4-dichlorophenylsulfonyl)-2,3-dihydro-1H-pyrido[2,3-b][1,4]oxazine-7-carboxamido)tetrahydro-2H-pyran-4-carboxylate] | ≤ 30 | –
23 | CN(CC(C)(C)CO)C(=O)c1cnc2c(c1)N(S(=O)(=O)c1ccc(Cl)c(Cl)c1)CCO2 [Example 121, 1-(3,4-dichlorophenylsulfonyl)-N-(3-hydroxy-2,2-dimethylpropyl)-N-methyl-2,3-dihydro-1H-pyrido[2,3-b][1,4]oxazine-7-carboxamide] | ≤ 30 | –
24 | CCC(C)(C)NC(=O)c1cnc2c(c1)N(S(=O)(=O)N1CCC(F)(F)C1)CCO2 [Example 164, 1-(3,3-difluoropyrrolidin-1-ylsulfonyl)-N-tert-pentyl-2,3-dihydro-1H-pyrido[2,3-b][1,4]oxazine-7-carboxamide] | ≤ 30 | –
25 | O=C(NC1CCCC1)c1cnc2c(c1)N(S(=O)(=O)c1ccc(F)cc1)CCO2 [Example 10] | ≤ 30 | –
26 | O=S(=O)(c1ccc(C(F)(F)F)cc1)N1CCOc2ncc(-c3ncc(-c4ccccc4)o3)cc21 [Example 227, 7-(5-phenyloxazol-2-yl)-1-(4-(trifluoromethyl)phenyl-sulfonyl)-2,3-dihydro-1H-pyrido[2,3-b][1,4]oxazine] | ≤ 30 | –
27 | CC(C)(O)CNC(=O)c1cnc2c(c1)N(S(=O)(=O)c1ccc(F)c(F)c1)CCO2 [Example 109, 1-(3,4-difluorophenylsulfonyl)-N-(2-hydroxy-2-methylpropyl)-2,3-dihydro-1H-pyrido[2,3-b][1,4]oxazine-7-carboxamide] | ≤ 30 | –
28 | O=C(NC1(CO)CCCC1)c1cnc2c(c1)N(S(=O)(=O)c1ccc(C(F)(F)F)cc1)CCO2 [Example 67, N-(1-(hydroxymethyl)-cyclopentyl)-1-(4-(trifluoromethyl)phenylsulf-onyl)-2,3-dihydro-1H-pyrido[2,3-b][1,4]oxazine-7-carboxamide] | ≤ 30 | –
29 | COCCCNC(=O)c1noc(-c2cnc3c(c2)N(S(=O)(=O)c2ccc(F)cc2)CCO3)n1 [Example 216, 5-(1-(4-fluorophenylsulfonyl)-2,3-dihydro-1H-pyrido[2,3-b] [1,4]oxazin-7-yl)-N-(3-methoxypropyl)-1,2,4-oxadiazole-3-carboxamide] | ≤ 30 | –
30 | CCC(C)(C)NC(=O)c1cnc2c(c1)N(S(=O)(=O)N1CCOCC1)CCO2 [Example 142, 1-(morpholinosulfonyl)-N-tert-pentyl-2,3-dihydro-1H-pyrido[2,3-b][1,4]oxazine-7-carboxamide] | ≤ 30 | –
31 | CC(C)(CO)CNC(=O)c1cnc2c(c1)N(S(=O)(=O)N1CCC(C(F)(F)F)CC1)CCO2 [Example 155, N-(3-hydroxy-2,2-dimethylpropyl)-1-(4-(trifluoromethyl)piperidin-1-ylsulfonyl)-2,3-dihydro-1H-pyrido[2,3-b][1,4]oxazine-7-carboxamide] | ≤ 30 | –
32 | CC(C)CNC(=O)c1cnc2c(c1)N(S(=O)(=O)c1ccc(F)cc1)CCO2 [Example 8, 1-(4-fluorophenyl-sulfonyl)-N-isobutyl-2,3-dihydro-1H-pyrido[2,3-b][1,4]oxazine-7-carboxamide] | ≤ 30 | –
